Structures can show the parent of a compound that is named as a salt.
biological target: T1, human EP3 receptor (Homo sapiens, UniProt P43115); assay: Cellular in vitro assay for determining EP3 receptor activity (human EP3 cell line, sulprostone-stimulated calcium luminescence); type: cell-based; conditions: CHO cells expressing human EP3 and mitochondrial Clytin; antagonist mode, sulprostone at EC50; read-out: EP3 CHO mtCLY ANTAG IC50
T1 construct: expressed in transfected cells; host or cells: CHO K1 (Chinese Hamster Ovary), stably co-transfected with Galpha16 and mitochondrial clytin
T1 sequence (P43115 1-390): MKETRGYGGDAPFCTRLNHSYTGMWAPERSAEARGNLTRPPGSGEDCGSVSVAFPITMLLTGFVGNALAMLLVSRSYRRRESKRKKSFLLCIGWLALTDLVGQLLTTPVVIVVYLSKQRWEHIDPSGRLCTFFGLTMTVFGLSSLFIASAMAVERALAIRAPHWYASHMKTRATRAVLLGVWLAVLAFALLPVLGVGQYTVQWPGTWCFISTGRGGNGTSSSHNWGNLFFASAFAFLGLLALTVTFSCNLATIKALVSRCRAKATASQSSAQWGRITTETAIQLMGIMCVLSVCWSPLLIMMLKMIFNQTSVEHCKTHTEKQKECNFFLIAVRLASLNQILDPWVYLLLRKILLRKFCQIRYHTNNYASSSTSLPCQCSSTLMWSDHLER
Summary of the method: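 CHO K1 cells stably expressing human EP3 with Gα16 and mitochondrial Clytin, loaded overnight with coelenterazine. Compounds added 10 min before sulprostone at its EC50; antagonism read immediately as reduced calcium-driven luminescence, quadruplicate points.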

| Structure (SMILES) | IC50 |
| --- | --- |
| C[C@@H](NC(=O)c1cc2c(=O)[nH]c(-c3ccc4ccccc4c3)cn2n1)c1ccc2ccccc2c1 [Example 2-41, 6-(2-Naphthyl)-N-[(7R)-1-(2-naphthyl)ethyl]-4-oxo-4,5-dihydropyrazolo[1,5-a]pyrazine-2-carboxamide] | 2.15 nM |
| Cc1c(C(=O)NC(CCO)c2ccccc2Cl)nn2c(C)c(-c3ccc4ccccc4c3)[nH]c(=O)c12 (stereo not drawn) [Example 3-68, N-[1-(2-Chlorophenyl)-3-hydroxypropyl]-3,7-dimethyl-6-(2-naphthyl)-4-oxo-5H-pyrazolo[1,5-a]pyrazine-2-carboxamide] | 1.85 nM |
| N#Cc1c(C(=O)N[C@@H](CCO)c2ccc(F)cc2)nn2cc(-c3ccc4ccccc4c3)[nH]c(=O)c12 [Example 1-72, 3-Cyano-N-[(1S)-1-(4-fluorophenyl)-3-hydroxpropyl]-6-(naphthalen-2-yl)-4-oxo-4,5-dihydropyrazolo[1,5-a]pyrazine-2-carboxamide] | 6.55 nM |
| COc1ccc(C2(NC(=O)c3cc4c(=O)[nH]c(-c5ccc6ccccc6c5)cn4n3)CN(C)C2)cc1 [Example 1-59, N-[3-(4-Methoxyphenyl)-1-methylazetidin-3-yl]-6-(naphthalen-2-yl)-4-oxo-4,5-dihydropyrazolo-[1,5-a]pyrazine-2-carboxamide formic acid salt] | 5.9 nM |
| Cc1ccc([C@@H](C)NC(=O)c2nn3cc(-c4ccc5ccccc5c4)[nH]c(=O)c3c2C#N)cc1 [Example 3-53, 3-Cyano-N-[(7R)-1-(4-methylphenyl)ethyl]-6-(naphthalen-2-yl)-4-oxo-4,5-dihydropyrazolo[1,5-a]pyrazine-2-carboxamide] | 1.45 nM |
| Cc1c(C(=O)NC2(c3ccccc3)CCOCC2)nn2c(C)c(-c3ccc4ccccc4c3)[nH]c(=O)c12 [Example 3-34, 3,7-Dimethyl-6-(2-naphthyl)-4-oxo-N-(4-phenyltetrahydro-2H-pyran-4-yl)-4,5-dihydropyrazolo[1,5-a]pyrazine-2-carboxamide] | 6.05 nM |
| Cc1cc(-c2cn3nc(C(=O)N[C@H](C)c4ccc(F)cc4)c(C4CC4)c3c(=O)[nH]2)ccc1C(F)(F)F [Example 1-131, 3-Cyclopropyl-N-[(1R)-1-(4-fluorophenyl)ethyl]-6-[3-methyl-4-(trifluoromethyl)phenyl]-4-oxo-4,5-dihydropyrazolo[1,5-a]pyrazine-2-carboxamide] | 5.45 nM |
| Cc1c(C(=O)N[C@H](C)c2ccccc2)nn2c(C)c(-c3ccc4ccccc4c3)[nH]c(=O)c12 [Example 3-65, 3,7-Dimethyl-6-(naphthalen-2-yl)-4-oxo-N-[(1R)-1-phenylethyl]-4,5-dihydropyrazolo[1,5-a]pyrazine-2-carboxamide] | 2 nM |
| COc1ccc(C(C)NC(=O)c2cc3c(=O)[nH]c(-c4ccc5ccccc5c4)cn3n2)cc1OC (stereo not drawn) [Example 2-55, N-[1-(3,4-Dimethoxyphenyl)ethyl]-6-(2-naphthyl)-4-oxo-4,5-dihydropyrazolo[1,5-a]pyrazine-2-carboxamide] | 1.15 nM |
| O=C(N[C@H](CCO)c1ccc(F)cc1)c1cc2c(=O)[nH]c(-c3ccc4c(c3)COCC4)cn2n1 [Example 1-24, 6-(3,4-Dihydro-1H-isochromen-7-yl)-N-[(1R)-1-(4-fluorophenyl)-3-hydroxypropyl]-4-oxo-4,5-dihydropyrazolo[1,5-a]pyrazine-2-carboxamide] | 7.3 nM |
| Cc1ccc(-c2cn3nc(C(=O)N[C@H](C)c4ccc(F)cc4)c(C(C)C)c3c(=O)[nH]2)cc1C [Example 1-90, 6-(3,4-Dimethylphenyl)-N-[(1R)-1-(4-fluorophenyl)ethyl]-4-oxo-3-(propan-2-yl)-4,5-dihydropyrazolo[1,5-a]pyrazine-2-carboxamide] | 0.515 nM |
| CCN1CC(NC(=O)c2nn3cc(-c4ccc(C)c(C)c4)[nH]c(=O)c3c2C(F)(F)F)(c2ccc(F)cc2)C1 [Example 1-176, 6-(3,4-Dimethylphenyl)-N-[1-ethyl-3-(4-fluorophenyl)azetidin-3-yl]-4-oxo-3-(trifluoromethyl)-4,5-dihydropyrazolo[1,5-a]pyrazine-2-carboxamide] | 1.67 nM |
| COc1ccc(CNC(=O)c2cc3c(=O)[nH]c(-c4ccc5c(c4)N(C)CCO5)cn3n2)cc1OC [Example 1-16, N-(3,4-Dimethoxybenzyl)-6-(4-methyl-3,4-dihydro-2H-1,4-benzoxazin-6-yl)-4-oxo-4,5-dihydropyrazolo[1,5-a]pyrazine-2-carboxamide] | 2 nM |
| CN(C)C(CNC(=O)c1cc2c(=O)[nH]c(-c3ccc4ccccc4c3)cn2n1)c1cccc(C(F)(F)F)c1 (stereo not drawn) [Example 2-15, N-{2-(Dimethylamino)-2-[3-(trifluormethyl)phenyl]ethyl}-6-(2-naphthyl)-4-oxo-4,5-dihydropyrazolo[1,5-a]pyrazine-2-carboxamide] | 9.55 nM |
| CCN(CCO)CC(NC(=O)c1nn2cc(-c3ccc4ccccc4c3)[nH]c(=O)c2c1C1CC1)c1ccccc1 (stereo not drawn) [Example 1-26, 3-Cyclopropyl-N-[2-[ethyl(2-hydroxyethyl)amino]-1-phenylethyl]-6-(2-naphthyl)-4-oxo-5H-pyrazolo[1,5-a]pyrazine-2-carboxamide] | 1.4 nM |

More lines, now with the values ahead:

| IC50 | Structure (SMILES) |
| --- | --- |
| 3.3 nM | Cc1ccc(-c2cn3nc(C(=O)NC4CCN(CC(F)(F)F)C4)c(C4CC4)c3c(=O)[nH]2)cc1F (single isomer, unassigned) [6-391] |
| 4.75 nM | N#Cc1c(C(=O)NC2(c3ccc(F)cc3)CC2)nn2cc(-c3ccc4ccccc4c3)[nH]c(=O)c12 [6-70] |
| 2.98 nM | CC(C)(O)[C@@H](NC(=O)c1nn2cc(-c3ccc(Cl)c(F)c3)[nH]c(=O)c2c1C(F)(F)C(F)(F)F)c1ccc(F)cc1 [6-493] |
| 1.75 nM | Cc1cccc2ncc(-c3cn4nc(C(=O)NC(CN(C)C)c5ccccc5)c(C(C)C)c4c(=O)[nH]3)cc12 (stereo not drawn) [Example 4-1, N-[2-(Dimethylamino)-1-phenylethyl]-3-isopropyl-6-(5-methyl-3-quinolyl)-4-oxo-5H-pyrazolo[1,5-a]pyrazine-2-carboxamide] |
| 10 nM | Cc1ccc(-c2cn3nc(C(=O)NC4(C)CCC4)c(C(F)(F)F)c3c(=O)[nH]2)cc1F [6-146] |
| 1.95 nM | Cc1ccc(-c2cn3nc(C(=O)NCC(O)(C(F)(F)F)C(F)(F)F)c(C4CC4)c3c(=O)[nH]2)cc1C [6-434] |
| 1.14 nM | COc1ccc(C(C)NC(=O)c2nn3cc(-c4cnc5cccc(C)c5c4)[nH]c(=O)c3c2C(C)C)cc1 (stereo not drawn) [Example 4-7, 3-Isopropyl-N-[1-(4-methoxyphenyl)ethyl]-6-(5-methyl-3-quinolyl)-4-oxo-5H-pyrazolo[1,5-a]pyrazine-2-carboxamide] |
| 4.85 nM | Cc1c(C(=O)NC2(c3ccc(F)cc3)CCN(CC(F)(F)F)CC2)nn2cc(-c3ccc4ccccc4c3)[nH]c(=O)c12 [6-5] |
| 2.95 nM | Cc1cc(-c2cn3nc(C(=O)NC4(c5ccc(F)cc5)CN(C)C4)c(C(C)C)c3c(=O)[nH]2)ccc1Cl [6-607] |
| 1.7 nM | CC(C)c1c(C(=O)N[C@@H](c2ccc(F)cc2)C(C)(C)O)nn2cc(-c3ccc(Cl)cc3)[nH]c(=O)c12 [6-672] |
| 1.05 nM | Cc1cccc2ncc(-c3cn4nc(C(=O)NC(C)c5ccccc5OC(F)F)c(C(C)C)c4c(=O)[nH]3)cc12 (stereo not drawn) [Example 4-46, N-{1-[2-(Difluoromethoxy)phenyl]ethyl}-3-isopropyl-6-(5-methylquinolin-3-yl)-4-oxo-4,5-dihydropyrazolo[1,5-a]pyrazine-2-carboxamide] |
| 1.55 nM | Cc1ccc(-c2cn3nc(C(=O)NC(C)C4CCC4)c(C(F)(F)F)c3c(=O)[nH]2)cc1Cl (single isomer, unassigned) [6-195] |
| 2.9 nM | Cc1ccc(-c2cn3nc(C(=O)N[C@@H](c4ccc(F)cc4)C(C)(C)O)c(C4CC4(F)F)c3c(=O)[nH]2)cc1Cl (stereo partly drawn) [6-563] |
| 7.4 nM | CC(C)(O)[C@@H](NC(=O)c1nn2cc(-c3cc(F)c(Cl)cc3F)[nH]c(=O)c2c1C1CC1)c1ccc(F)cc1 [6-584] |
| 1.95 nM | COc1ccc(CCNC(=O)c2cc3c(=O)[nH]c(-c4ccc5c(c4)N(C)CCO5)cn3n2)cc1OC [6-86] |
| 0.74 nM | O=C(NC1(c2ccc(F)cc2)COC1)c1cc2c(=O)[nH]c(-c3ccc4ccccc4c3)cn2n1 [6-56] |
| 5.95 nM | CCN1CCC(NC(=O)c2nn3cc(-c4ccc(C)c(F)c4)[nH]c(=O)c3c2C2CC2)(C(F)(F)F)C1 (racemic) [6-404] |
| 5.3 nM | Cc1cc(-c2cn3nc(C(=O)N[C@H](C)C4CC4)c(C(F)(F)C(F)(F)F)c3c(=O)[nH]2)ccc1Cl [6-476] |
| 0.59 nM | CC[C@@H](C)NC(=O)c1nn2cc(-c3ccc4ccccc4c3)[nH]c(=O)c2c1C(F)(F)F [6-511] |
| 1.22 nM | Cc1ccc(-c2cn3nc(C(=O)N[C@@H](c4ccc(F)cc4)[C@H](O)C(F)(F)F)c(C4CC4)c3c(=O)[nH]2)cc1Cl [6-272] |
| 2.65 nM | O=C(N[C@@H](c1ccc(F)cc1)C(F)(F)CO)c1nn2cc(-c3cc(Cl)c(Cl)cc3F)[nH]c(=O)c2c1C1CC1 [6-582] |
| 0.87 nM | Cc1ccc(-c2cn3nc(C(=O)NCCC(O)C(F)(F)F)c(C4CC4)c3c(=O)[nH]2)cc1F (single isomer, unassigned) [6-368] |
| 2 nM | CC[C@@H](C)NC(=O)c1nn2cc(-c3ccc(Cl)c(C)c3)[nH]c(=O)c2c1C1CC1 [6-332] |
| 2.4 nM | COc1ccc(C(C)NC(=O)c2nn3cc(-c4cnc5cccc(C)c5c4)[nH]c(=O)c3c2C(C)C)cc1F (stereo not drawn) [Example 4-71, N-[1-(3-Fluoro-4-methoxyphenyl)ethyl]-3-isopropyl-6-(5-methyl-3-quinolyl)-4-oxo-5H-pyrazolo[1,5-a]pyrazine-2-carboxamide] |

Reference: US20220324865A1 (Bayer Aktiengesellschaft, priority 2018, published 2022)
